The target in one assay is T1, mTOR (Homo sapiens, UniProt P42345).
T1 construct: endogenous in cells; host or cells: Jurkat, clone E6-1 (ATCC TIB-152) cell lysate
The experiment in a line: mTOR kinobeads assay (competitive binding in Jurkat cell lysate, immunodetection). As to the method: The compounds of the present invention as described were tested in the mTOR kinobeads assay as described below. […] After the incubation time the beads with captured proteins were separated from the lysate. Bound proteins were then eluted and the presence of mTOR, PI3K delta (PI3 Kd) and DNA-dependent protein kinase (DNA-PK) was detected and quantified using a specific antibody in a dot blot procedure and the Odyssey infrared detection system.
(§1) The kinobeads assay was performed as a competitive binding assay in which test compounds were added directly into a cell lysate. Test compounds (at various concentrations) and the affinity matrix (beads with immobilized phenylmorpholin-chromen ligand) were added to cell lysate aliquots and allowed to bind to the proteins contained in the lysate sample. After the incubation time the beads with captured proteins were separated from the lysate. Bound proteins were then eluted and the presence of kinases was detected and quantified using a multiplexed immunodetection format. Dose response curves for individual kinases were generated and IC50 values calculated.
(§2) 5×DP buffer: 250 mM Tris-HCl pH 7.4, 25% Glycerol, 7.5 mM MgCl2, 750 mM NaCl, 5 mM Na3VO4, filter the 5×-lysis buffer through 0.22 μm filter and store in aliquots at −80° C. The 5×DP buffer is diluted to 1×DP buffer containing 1 mM DTT and 25 mM NaF.
Stock solutions of test compounds were prepared in DMSO. In a 96 well plate 30 μl solution of diluted test compounds at 5 mM in DMSO were prepared. Starting with this solution a 1:3 dilution series (9 steps) was prepared. For control experiments (no test compound) a buffer containing 2% DMSO was used.
Jurkat cells were homogenized in a Potter S homogenizer in lysis buffer: 50 mM Tris-HCl, 0.8% NP40, 5% glycerol, 150 mM NaCl, 1.5 mM MgCl2, 25 mM NaF, 1 mM sodium vanadate, 1 mM DTT, pH 7.5. […] The material was dounced 10 times using a mechanized POTTER S, transferred to 50 ml falcon tubes, incubated for 30 minutes on ice and spun down for 10 min at 20,000 g at 4° C. (10,000 rpm in Sorvall SLA600, precooled). […] (33.500 rpm in Ti50.2, precooled). The supernatant was transferred again to a fresh 50 ml falcon tube, the protein concentration was determined by a Bradford assay (BioRad) and samples containing 50 mg of protein per aliquot were prepared. The samples were immediately used for experiments or frozen in liquid nitrogen and stored frozen at −80° C.
Jurkat cell lysate (approximately 50 mg protein per plate) was thawed in a water bath at room temperature and then kept on ice. […] The diluted cell lysate was stored on ice.
Plates were sealed and incubated for two hours in a cold room on a Thermoxer with shaking (750 rpm). Afterwards the plate was washed twice with 230 μl washing buffer (1×DP 0.4% NP40). […] The eluate was frozen quickly at −80° C. and stored at −20° C.
The kinases in the eluates were detected and quantified by spotting on Nitrocellulose membranes and using a first antibody directed against the kinase of interest and a fluorescently labeled secondary antibody (anti-mouse or anti-rabbit IRDye™ antibodies from Rockland).
Afterwards the membrane was washed three times for 10 minutes with PBS buffer containing 0.1% Tween 20 at room temperature. […] Afterwards the membrane was washed three times for 10 minutes each with 1×PBS buffer containing 0.1% Tween 20 at room temperature. Then the membrane was rinsed once with PBS buffer to remove residual Tween 20. The membrane was kept in PBS buffer at 4° C. and then scanned with the Odyssey instrument. Fluorescence signals were recorded and analysed according to the instructions of the manufacturer.

Another assay has as its target T2, PI3Kalpha (PI3Ka) (Homo sapiens, UniProt P42336).
T2 construct: endogenous in cells; host or cells: cell lysate
The experiment in a line: kinobeads assay, PI3Kalpha. The format is binding. The conditions noted are these: for PI3Ka: Further Kinobeads Data. As to the method:
as §1
(§3) The effect of the compounds on the kinases PI3Kalpha (PI3Ka), PI3 Kbeta (PI3 Kb) and PI3 Kgamma (PI3 Kg) were tested in the kinobeads assay as described (WO-A 2009/098021).

In the next assay the target is T3, PI3 Kgamma (PI3 Kg) (Homo sapiens, UniProt P48736).
T3 construct: endogenous in cells; host or cells: cell lysate
The experiment in a line: kinobeads assay, PI3Kgamma. Type of assay: binding. As to the method: as §1, §3

The target in the next assay is T4, PI3K delta (PI3 Kd) (Homo sapiens, UniProt O00329).
T4 construct: endogenous in cells; host or cells: Jurkat, clone E6-1 (ATCC TIB-152) cell lysate
The experiment in a line: kinobeads assay, PI3K delta. Type of assay: binding. As to the method: (§4) The compounds of the present invention as described were tested in the mTOR kinobeads assay as described below. Briefly, test compounds (at various concentrations) and the affinity matrix with the immobilized phenylmorpholin-chromen ligand (8-(4-aminomethyl-phenyl)-2-morpholin-4-yl-chromen-4-one) were added to cell lysate aliquots and allowed to bind to the proteins in the lysate sample. After the incubation time the beads with captured proteins were separated from the lysate. Bound proteins were then eluted and the presence of mTOR, PI3K delta (PI3 Kd) and DNA-dependent protein kinase (DNA-PK) was detected and quantified using a specific antibody in a dot blot procedure and the Odyssey infrared detection system. Kinobeads assays for PI3K (WO-A 2008/015013) and for kinase selectivity profiling (WO 2006/134056) have been previously described.
as §1
(§5) The affinity matrix (beads with immobilized phenylmorpholin-chromen ligand) was washed two times with 15 ml of 1×DP buffer containing 0.2% NP40 (IGEPAL® CA-630, Sigma, #13021) and then resupended in 5.5 ml of 1×DP buffer containing 0.2% NP40 (10% beads slurry).
as §2
(§6) Stock solutions of test compounds were prepared in DMSO. In a 96 well plate 30 μl solution of diluted test compounds at 5 mM in DMSO were prepared. Starting with this solution a 1:3 dilution series (9 steps) was prepared. For control experiments (no test compound) a buffer containing 2% DMSO was used. Compound CZC00018052 served as a positive control (PI-103; Calbiochem catalogue number 528100).
(§7) Jurkat cells (ATCC catalogue number TIB-152 Jurkat, clone E6-1) were grown in 1 liter Spinner flasks (Integra Biosciences, #182101) in suspension in RPMI 1640 medium (Invitrogen, #21875-034) supplemented with 10% Fetal Bovine Serum (Invitrogen) at a density between 0.15×10^6 and 1.2×10^6 cells/ml. Cells were harvested by centrifugation, washed once with 1×PBS buffer (Invitrogen, #14190-094) and cell pellets were frozen in liquid nitrogen and subsequently stored at −80° C.
(§8) Jurkat cells were homogenized in a Potter S homogenizer in lysis buffer: 50 mM Tris-HCl, 0.8% NP40, 5% glycerol, 150 mM NaCl, 1.5 mM MgCl2, 25 mM NaF, 1 mM sodium vanadate, 1 mM DTT, pH 7.5. One complete EDTA-free tablet (protease inhibitor cocktail, Roche Diagnostics, 1873580) per 25 ml buffer was added. The material was dounced 10 times using a mechanized POTTER S, transferred to 50 ml falcon tubes, incubated for 30 minutes on ice and spun down for 10 min at 20,000 g at 4° C. (10,000 rpm in Sorvall SLA600, precooled). The supernatant was transferred to an ultracentrifuge (UZ)-polycarbonate tube (Beckmann, 355654) and spun for 1 hour at 100.000 g at 4° C. (33.500 rpm in Ti50.2, precooled). The supernatant was transferred again to a fresh 50 ml falcon tube, the protein concentration was determined by a Bradford assay (BioRad) and samples containing 50 mg of protein per aliquot were prepared. The samples were immediately used for experiments or frozen in liquid nitrogen and stored frozen at −80° C. […]

Assay [1] addresses T5, DNA-dependent protein kinase (DNA-PK) (Homo sapiens, UniProt P78527).
T5 construct: endogenous in cells; host or cells: Jurkat, clone E6-1 (ATCC TIB-152) cell lysate
The assay is described as follows: kinobeads assay, DNA-PK. The format is binding. On the procedure:
as §4, §1, §5, §2, §6, §7, §8

The target of a further assay is T6, PI3 Kbeta (PI3 Kb) (Homo sapiens, UniProt P42338).
T6 construct: endogenous in cells; host or cells: cell lysate
The experiment in a line: kinobeads assay, PI3Kbeta. The format is binding. As to the method:
as §1, §3

[2] abbreviates: kinobeads assay, Table 6, read-out: Inhibition values (IC50) mTOR.
Where [3] appears, read: kinobeads assay, Table 6, read-out: Inhibition values (IC50) PI3Kg.
Setting [4] is: kinobeads assay, Table 6, read-out: Inhibition values (IC50) PI3Kd.
The mark [5] stands for this setting: Further Kinobeads Data, read-out: mTor.
[6] abbreviates: Further Kinobeads Data, read-out: DNAPK.
The mark [7] stands for this setting: Further Kinobeads Data, read-out: PI3Kg.
The mark [8] stands for this setting: Further Kinobeads Data, read-out: PI3Kd.
Where [9] appears, read: Further Kinobeads Data, read-out: PI3Kb.
Where [10] appears, read: kinobeads assay, Table 6, read-out: Inhibition values (IC50) DNAPK.
[11] abbreviates: kinobeads assay, Table 6, read-out: Inhibition values (IC50) PI3Kb.

Molecules are shown by their SMILES. pIC50: −log10 of the molar value. Read-outs that look alike come from different tables or passages of the source.

T5 sequence (P78527 whole entry): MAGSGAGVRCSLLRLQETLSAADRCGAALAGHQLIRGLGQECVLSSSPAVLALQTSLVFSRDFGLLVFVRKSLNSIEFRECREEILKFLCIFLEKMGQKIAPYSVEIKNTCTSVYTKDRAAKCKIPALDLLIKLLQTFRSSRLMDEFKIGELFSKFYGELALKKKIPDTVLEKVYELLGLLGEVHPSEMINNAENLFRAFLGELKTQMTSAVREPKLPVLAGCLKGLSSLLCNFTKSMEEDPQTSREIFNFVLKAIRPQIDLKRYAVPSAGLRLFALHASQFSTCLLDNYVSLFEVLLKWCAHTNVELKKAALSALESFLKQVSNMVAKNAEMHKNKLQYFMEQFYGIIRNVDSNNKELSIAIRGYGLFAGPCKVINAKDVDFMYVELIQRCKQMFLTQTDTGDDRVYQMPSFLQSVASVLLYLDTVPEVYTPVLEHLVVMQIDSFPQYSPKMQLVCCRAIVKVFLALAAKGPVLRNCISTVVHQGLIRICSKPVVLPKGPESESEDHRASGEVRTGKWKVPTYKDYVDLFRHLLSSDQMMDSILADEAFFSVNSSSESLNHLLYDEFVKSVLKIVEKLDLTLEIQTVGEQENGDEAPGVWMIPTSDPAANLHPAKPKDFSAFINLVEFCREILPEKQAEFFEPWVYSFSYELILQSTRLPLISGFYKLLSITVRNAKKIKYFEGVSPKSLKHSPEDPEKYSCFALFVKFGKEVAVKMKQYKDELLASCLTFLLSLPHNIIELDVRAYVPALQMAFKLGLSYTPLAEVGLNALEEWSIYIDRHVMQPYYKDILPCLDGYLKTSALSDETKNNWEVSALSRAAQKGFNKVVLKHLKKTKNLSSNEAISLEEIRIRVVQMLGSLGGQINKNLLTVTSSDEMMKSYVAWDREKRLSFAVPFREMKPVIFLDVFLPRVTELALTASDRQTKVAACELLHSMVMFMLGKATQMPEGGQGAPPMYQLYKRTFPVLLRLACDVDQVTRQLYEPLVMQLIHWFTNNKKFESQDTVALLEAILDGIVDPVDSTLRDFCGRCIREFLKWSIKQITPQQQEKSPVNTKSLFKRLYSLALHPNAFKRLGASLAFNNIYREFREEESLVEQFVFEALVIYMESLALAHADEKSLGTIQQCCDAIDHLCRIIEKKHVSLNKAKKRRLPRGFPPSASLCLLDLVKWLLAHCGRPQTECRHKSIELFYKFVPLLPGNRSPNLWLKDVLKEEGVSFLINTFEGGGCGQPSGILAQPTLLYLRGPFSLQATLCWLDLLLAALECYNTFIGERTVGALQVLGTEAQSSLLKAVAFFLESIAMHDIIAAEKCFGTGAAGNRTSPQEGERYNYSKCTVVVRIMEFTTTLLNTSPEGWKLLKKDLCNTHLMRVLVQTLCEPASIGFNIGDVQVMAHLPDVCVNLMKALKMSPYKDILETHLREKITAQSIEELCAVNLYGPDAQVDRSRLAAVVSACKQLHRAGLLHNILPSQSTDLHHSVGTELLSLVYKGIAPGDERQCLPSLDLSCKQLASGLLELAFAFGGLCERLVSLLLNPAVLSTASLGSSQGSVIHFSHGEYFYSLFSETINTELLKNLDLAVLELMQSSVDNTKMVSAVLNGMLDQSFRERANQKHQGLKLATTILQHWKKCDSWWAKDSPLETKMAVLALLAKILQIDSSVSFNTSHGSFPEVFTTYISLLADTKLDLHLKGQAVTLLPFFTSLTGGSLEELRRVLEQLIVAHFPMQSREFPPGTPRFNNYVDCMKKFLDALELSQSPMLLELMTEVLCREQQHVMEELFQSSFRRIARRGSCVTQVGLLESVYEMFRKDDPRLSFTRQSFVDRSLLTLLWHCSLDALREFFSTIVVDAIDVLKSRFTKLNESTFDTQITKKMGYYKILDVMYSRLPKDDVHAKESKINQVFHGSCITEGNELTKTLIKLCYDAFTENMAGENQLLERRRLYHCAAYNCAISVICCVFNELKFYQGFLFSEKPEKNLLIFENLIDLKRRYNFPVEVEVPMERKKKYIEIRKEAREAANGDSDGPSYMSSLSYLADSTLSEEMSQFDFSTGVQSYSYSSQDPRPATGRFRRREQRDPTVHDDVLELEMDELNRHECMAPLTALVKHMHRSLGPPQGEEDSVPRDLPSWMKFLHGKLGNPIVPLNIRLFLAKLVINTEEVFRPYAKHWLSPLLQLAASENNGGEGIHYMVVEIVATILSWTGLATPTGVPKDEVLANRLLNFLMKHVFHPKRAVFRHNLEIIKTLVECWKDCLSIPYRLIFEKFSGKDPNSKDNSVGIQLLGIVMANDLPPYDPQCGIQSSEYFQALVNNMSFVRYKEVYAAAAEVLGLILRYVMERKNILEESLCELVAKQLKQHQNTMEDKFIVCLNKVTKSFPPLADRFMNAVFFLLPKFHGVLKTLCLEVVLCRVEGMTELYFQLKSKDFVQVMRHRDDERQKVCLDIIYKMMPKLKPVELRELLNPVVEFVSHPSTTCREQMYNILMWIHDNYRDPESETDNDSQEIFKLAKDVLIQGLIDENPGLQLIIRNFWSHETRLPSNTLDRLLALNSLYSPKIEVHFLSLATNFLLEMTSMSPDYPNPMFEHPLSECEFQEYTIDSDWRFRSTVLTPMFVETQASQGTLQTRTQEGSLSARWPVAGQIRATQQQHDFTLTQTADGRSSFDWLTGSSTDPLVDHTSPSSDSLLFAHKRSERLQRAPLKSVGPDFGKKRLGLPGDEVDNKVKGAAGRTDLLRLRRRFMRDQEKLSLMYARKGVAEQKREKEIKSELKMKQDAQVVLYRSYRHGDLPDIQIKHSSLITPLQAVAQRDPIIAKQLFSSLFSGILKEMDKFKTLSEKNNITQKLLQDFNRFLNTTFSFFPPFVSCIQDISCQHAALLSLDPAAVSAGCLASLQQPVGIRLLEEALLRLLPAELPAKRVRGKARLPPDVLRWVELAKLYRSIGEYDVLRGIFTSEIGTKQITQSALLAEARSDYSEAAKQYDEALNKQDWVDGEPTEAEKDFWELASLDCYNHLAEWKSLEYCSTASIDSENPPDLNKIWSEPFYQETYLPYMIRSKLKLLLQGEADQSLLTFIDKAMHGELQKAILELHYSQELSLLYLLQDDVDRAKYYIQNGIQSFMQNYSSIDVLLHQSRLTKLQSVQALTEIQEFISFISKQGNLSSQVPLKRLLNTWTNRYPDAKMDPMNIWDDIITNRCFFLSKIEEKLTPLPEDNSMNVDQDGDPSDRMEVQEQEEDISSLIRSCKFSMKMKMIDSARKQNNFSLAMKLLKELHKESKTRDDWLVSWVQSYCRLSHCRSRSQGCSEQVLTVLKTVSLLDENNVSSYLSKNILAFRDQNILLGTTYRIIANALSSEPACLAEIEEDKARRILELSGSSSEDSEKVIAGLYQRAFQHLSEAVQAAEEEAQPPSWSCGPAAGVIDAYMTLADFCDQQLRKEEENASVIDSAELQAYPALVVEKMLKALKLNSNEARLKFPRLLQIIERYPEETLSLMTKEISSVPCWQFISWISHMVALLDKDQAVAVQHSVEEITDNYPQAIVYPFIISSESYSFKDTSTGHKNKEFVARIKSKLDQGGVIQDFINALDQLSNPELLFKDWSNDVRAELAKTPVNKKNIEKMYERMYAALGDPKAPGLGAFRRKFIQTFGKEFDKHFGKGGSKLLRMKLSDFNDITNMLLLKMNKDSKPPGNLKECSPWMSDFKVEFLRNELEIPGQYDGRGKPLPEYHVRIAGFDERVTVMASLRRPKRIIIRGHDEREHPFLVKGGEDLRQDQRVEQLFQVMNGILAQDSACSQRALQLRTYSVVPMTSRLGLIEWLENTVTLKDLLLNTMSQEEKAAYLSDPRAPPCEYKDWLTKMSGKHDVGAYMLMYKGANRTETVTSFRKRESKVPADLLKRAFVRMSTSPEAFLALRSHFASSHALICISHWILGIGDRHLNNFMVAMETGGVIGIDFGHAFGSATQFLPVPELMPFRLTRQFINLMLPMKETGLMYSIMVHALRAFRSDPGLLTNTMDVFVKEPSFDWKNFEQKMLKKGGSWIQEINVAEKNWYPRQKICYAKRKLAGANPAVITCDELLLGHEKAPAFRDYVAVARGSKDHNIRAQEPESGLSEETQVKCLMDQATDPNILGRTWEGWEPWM

As for `C[C@H]1COCCN1c1nc(-c2ccc(NC(=O)NC3CC3)cc2)nc2c1CN(C(=O)CCC(N)=O)C2` [Example 127, (S)-4-(2-(4-(3-cyclopropylureido)phenyl)-4-(3-methylmorpholino)-5H-pyrrolo[3,4-d]pyrimidin-6(7H)-yl)-4-oxobutanamide], the pIC50 at mTOR (setting [2]) is more than 7.00; on PI3Kalpha (PI3Ka) (kinobeads assay, Table 6, read-out: Inhibition values (IC50) PI3Ka) it was 5.00 to 6.00; on PI3 Kgamma (PI3 Kg) (setting [3]), less than 5.00; on PI3K delta (PI3 Kd) (setting [4]) it was less than 5.00.

For the compound `CCNC(=O)Nc1ccc(-c2nc3c(c(N4CCOC[C@@H]4C)n2)CN(C(C)=O)C3)c(F)c1` [Example 157, (S)-1-(4-(6-acetyl-4-(3-methylmorpholino)-6,7-dihydro-5H-pyrrolo[3,4-d]pyrimidin-2-yl)-3-fluorophenyl)-3-ethylurea], the pIC50 at mTOR (setting [5]) was more than 7.00; in assay [1] (setting [6]) it was less than 5.00; at PI3 Kgamma (PI3 Kg) (setting [7]), less than 5.00; at PI3K delta (PI3 Kd) (setting [8]), 5.00 to 6.00; at PI3 Kbeta (PI3 Kb) (setting [9]), less than 5.00. Further, the PI3Ka entry at PI3Kalpha (PI3Ka) is “D (D >10 μM)”.

For `CCOC(=O)N1Cc2nc(-c3ccc(NC(=O)Nc4cccc(O)c4)cc3)nc(N3CCOC[C@@H]3C)c2C1` [Example 111, (S)-ethyl 2-(4-(3-(3-hydroxyphenyl)ureido)phenyl)-4-(3-methylmorpholino)-5H-pyrrolo[3,4-d]pyrimidine-6(7H)-carboxylate], the pIC50 at mTOR (setting [2]) was 6.00 to 7.00; in assay [1] (setting [10]), less than 5.00; at PI3 Kgamma (PI3 Kg) (setting [3]), less than 5.00; at PI3K delta (PI3 Kd) (setting [4]), less than 5.00; on PI3 Kbeta (PI3 Kb) (setting [11]), less than 5.00. For the same compound, the “Inhibition values (IC50) PI3Ka” value at PI3Kalpha (PI3Ka) (kinobeads assay, Table 6) was “D (D >10 μM)”.

As for `CCNC(=O)Nc1ccc(-c2nc3c(c(N4CCOC[C@@H]4C)n2)CN(C)C3)c(F)c1F` [Example 140, (S)-1-(2,3-difluoro-4-(6-methyl-4-(3-methylmorpholino)-6,7-dihydro-5H-pyrrolo[3,4-d]pyrimidin-2-yl)phenyl)-3-ethylurea], the pIC50 was 5.00 to 6.00 on mTOR (setting [5]); less than 5.00 in assay [1] (setting [6]); less than 5.00 on PI3 Kgamma (PI3 Kg) (setting [7]); less than 5.00 at PI3K delta (PI3 Kd) (setting [8]); less than 5.00 at PI3 Kbeta (PI3 Kb) (setting [9]). Also, the PI3Ka entry at PI3Kalpha (PI3Ka) was “D (D >10 μM)”.

Take `C[C@H]1COCCN1c1nc(-c2ccc(NC(=O)NC3CC3)cc2F)nc2c1CN(C(=O)OC(C)(C)C)C2` [Example 144, (S)-tert-Butyl 2-(4-(3-cyclopropylureido)-2-fluorophenyl)-4-(3-methylmorpholino)-5H-pyrrolo[3,4-d]pyrimidine-6(7H)-carboxylate]: the pIC50 on mTOR (setting [5]) was 6.00 to 7.00; in assay [1] (setting [6]), less than 5.00; at PI3 Kgamma (PI3 Kg) (setting [7]) it was less than 5.00; at PI3K delta (PI3 Kd) (setting [8]), less than 5.00; on PI3 Kbeta (PI3 Kb) (setting [9]), less than 5.00. The PI3Ka result at PI3Kalpha (PI3Ka) is recorded as “D (D >10 μM)”.

Take `CCOC(=O)N1Cc2nc(-c3ccc(NC(=O)NCCN)cc3)nc(N3CCOC[C@@H]3C)c2C1` [Example 112, (S)-ethyl 2-(4-(3-(2-aminoethyl)ureido)phenyl)-4-(3-methylmorpholino)-5H-pyrrolo[3,4-d]pyrimidine-6(7H)-carboxylate]: the pIC50 was more than 7.00 at mTOR (setting [2]); less than 5.00 in assay [1] (setting [10]); 5.00 to 6.00 at PI3 Kgamma (PI3 Kg) (setting [3]); 6.00 to 7.00 at PI3K delta (PI3 Kd) (setting [4]); 5.00 to 6.00 on PI3 Kbeta (PI3 Kb) (setting [11]). The “Inhibition values (IC50) PI3Ka” value at PI3Kalpha (PI3Ka) (kinobeads assay, Table 6) was “B (B >0.1 μM < 1 μM)”.

For `C[C@H]1COCCN1c1nc(-c2ccc(NC(=O)NC3CC3)cc2)nc2c1CN(CC1CCN(C(=O)OC(C)(C)C)CC1)C2` [Example 128, (S)-tert-butyl 4-((2-(4-(3-cyclopropylureido)phenyl)-4-(3-methylmorpholino)-5H-pyrrolo[3,4-d]pyrimidin-6(7H)-yl)methyl)piperidine-1-carboxylate], the pIC50 is 6.00 to 7.00 on mTOR (setting [2]), less than 5.00 on PI3 Kgamma (PI3 Kg) (setting [3]) and less than 5.00 on PI3K delta (PI3 Kd) (setting [4]). Besides, the “Inhibition values (IC50) PI3Ka” value on PI3Kalpha (PI3Ka) (kinobeads assay, Table 6) is on record as “D (D >10 μM)”.

With `C[C@H]1COCCN1c1nc(-c2ccc(NC(=O)NCCN(C)C)cc2)nc2c1CN(C)C2` [Example 54, (S)-1-(2-(dimethylamino)ethyl)-3-(4-(6-methyl-4-(3-methylmorpholino)-6,7-dihydro-5H-pyrrolo[3,4-d]pyrimidin-2-yl)phenyl)urea], the pIC50 on mTOR (kinobeads assay, Table 4, read-out: Inhibition values (IC50) mTor) was 6.00 to 7.00; at mTOR (setting [2]), 6.00 to 7.00; in assay [1] (kinobeads assay, Table 4, read-out: Inhibition values (IC50) DNA-PK), less than 5.00; in assay [1] (setting [10]) it was less than 5.00; on PI3 Kgamma (PI3 Kg) (setting [3]), 5.00 to 6.00.

Values taken from patent publication US8785457B2 (Cellzome Limited, priority 2009, dated 2014).
